From patent publication US20250268903A1, “RXFP1 AGONISTS” (BRISTOL-MYERS SQUIBB COMPANY, priority 2021, published 2025)

Target: T1, human RXFP1 (Homo sapiens, UniProt Q9HBX9)
T1 construct: expressed in transfected cells
T1 sequence (Q9HBX9 1-757): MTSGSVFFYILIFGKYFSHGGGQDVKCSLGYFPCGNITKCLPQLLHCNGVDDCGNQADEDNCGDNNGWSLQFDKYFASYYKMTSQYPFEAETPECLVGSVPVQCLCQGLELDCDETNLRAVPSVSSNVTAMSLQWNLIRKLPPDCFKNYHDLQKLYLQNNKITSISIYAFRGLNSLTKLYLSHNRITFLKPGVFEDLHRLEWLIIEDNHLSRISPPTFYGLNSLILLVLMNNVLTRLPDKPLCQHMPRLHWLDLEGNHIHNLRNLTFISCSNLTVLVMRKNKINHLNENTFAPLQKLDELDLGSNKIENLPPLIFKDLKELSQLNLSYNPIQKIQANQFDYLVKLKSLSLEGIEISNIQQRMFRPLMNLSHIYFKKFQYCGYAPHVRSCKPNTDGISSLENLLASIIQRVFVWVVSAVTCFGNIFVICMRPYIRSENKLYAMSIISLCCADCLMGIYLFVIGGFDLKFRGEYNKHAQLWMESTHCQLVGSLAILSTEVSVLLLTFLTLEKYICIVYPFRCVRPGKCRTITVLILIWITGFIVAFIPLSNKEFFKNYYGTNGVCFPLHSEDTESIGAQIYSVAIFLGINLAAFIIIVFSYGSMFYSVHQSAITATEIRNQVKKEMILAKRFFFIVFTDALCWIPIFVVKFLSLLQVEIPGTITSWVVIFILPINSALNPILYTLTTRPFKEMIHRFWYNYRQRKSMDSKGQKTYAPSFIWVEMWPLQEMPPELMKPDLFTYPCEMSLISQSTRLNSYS
Assay: hRXFP1 HEK293 cAMP assay (HTRF)
Type: cell-based
Conditions: HEK293 cells stably expressing human RXFP1, 30 min at room temperature
Summary of the method: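 Intracellular cAMP was read by HTRF, with potency fitted to a 4-parameter logistic curve. Compound exposure (0.010 nM–50 μM final, 2% DMSO) lasted 30 min at room temperature. Cells were hRXFP1-HEK293 at 1500 per well in IBMX-containing (0.5 mM) HEPES-buffered HBSS.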

| SMILES | EC50 [nM] |
| --- | --- |
| COc1ccc(COC2CCC(O)CC2)cc1C(=O)N[C@H]1[C@@H](C(=O)Nc2ccc(F)c(C(F)(F)F)c2)[C@H]2CC[C@@H]1/C2=C\C1CC1 (stereo partly drawn) [Example 290, (1R,2S,3R,4R,7Z)-7-(cyclopropyl-methylidene)-N-[4-fluoro-3-(trifluoromethyl)phenyl]-3-(5-{[(4-hydroxycyclohexyl)oxy]methyl}-2-methoxybenzamido) bicyclo[2.2.1]heptane-2-carboxamide] | 76.6 |
| COc1ccc(COC[C@@H]2C[C@@H]2CO)cc1C(=O)N[C@H]1[C@@H](C(=O)Nc2ccc(F)c(C(F)(F)F)c2)[C@H]2CC[C@@H]1/C2=C\C1CC1 [Example 293, (1R,2S,3R,4R,7Z)-7-(cyclopropyl-methylidene)-N-[4-fluoro-3-(trifluoromethyl)phonyl]-3-[5-({[(1R,2S)-2-(hydroxymethyl)cyclopropyl]methoxy}methyl)-2-methoxybenzamido] bicyclo[2.2.1]heptane-2-carboxamide] | 67.1 |
| COc1ccc(CN2C(=O)CN(CCO)C2=O)cc1C(=O)N[C@H]1[C@@H](C(=O)Nc2ccc(F)c(C(F)(F)F)c2)[C@H]2CC[C@@H]1/C2=C\C1CC1 [Example 294, (1R,2S,3R,4R,7Z)-7-(cyclopropyl-methylidene)-N-[4-fluoro-3-(trifluoromethyl)phenyl]-3-(5-{[3-(2-hydroxyethyl)-2,5-dioxoimidazolidin-1-yl]methyl}-2-methoxybenzamido) bicyclo[2.2.1]heptane-2-carboxamide] | 117 |
| COc1ccc(CN2C(=O)NC3(CCOC3)C2=O)cc1C(=O)N[C@H]1[C@@H](C(=O)Nc2ccc(F)c(C(F)(F)F)c2)[C@H]2CC[C@@H]1/C2=C\C1CC1 (stereo partly drawn) [Example 295, (1R,2S,3R,4R,7Z)-7-(cyclopropyl-methylidene)-3-[5-({2,4-dioxo-7-oxa-1,3-diazaspiro[4.4]nonan-3-yl}methyl)-2-methoxybenzamido]-N-[4-fluoro-3-(trifluoromethyl)phenyl]bicyclo [2.2.1]heptane-2-carboxamide] | 70.4 |
| COCc1ncn(Cc2ccc(OC)c(C(=O)N[C@H]3[C@@H](C(=O)Nc4ccc(F)c(C(F)(F)F)c4)[C@H]4CC[C@@H]3/C4=C\C3CC3)c2)n1 [Example 296, (1R,2S,3R,4R,7Z)-7-(cyclopropyl-methylidene)-N-[4-fluoro-3-(trifluoromethyl)phenyl]-3-(2-methoxy-5-{[3-(methoxymethyl)-1H-1,2,4-triazol-1-yl]methyl}benzamido) bicyclo[2.2.1] heptane-2-carboxamide] | 107 |
| COc1ccc(CN2O[C@H]3COC[C@H]3C2=O)cc1C(=O)N[C@H]1[C@@H](C(=O)Nc2ccc(F)c(C(F)(F)F)c2)[C@H]2CC[C@@H]1/C2=C\C1CC1 [Example 299, (1R,2S,3R,4R,7Z)-3-(5-{[(3aR,6aR)-3-oxo-hexahydrofuro[3,4-d][1,2]oxazol-2-yl]methyl}-2-methoxybenzamido)-7-(cyclopropylmethylidene)-N-[4-fluoro-3-(trifluoromethyl)phenyl]bicyclo[2.2.1]heptane-2-carboxamide] | 116 |
| COc1ccc(COC2=NOC3COCC23)cc1C(=O)N[C@H]1[C@@H](C(=O)Nc2ccc(F)c(C(F)(F)F)c2)[C@H]2CC[C@@H]1/C2=C\C1CC1 (stereo partly drawn) [Example 300, (1R,2S,3R,4R,7Z)-3-[5-({3aH,4H,6H,6aH-furo[3,4-d][1,2]oxazol-3-yloxy}methyl)-2-methoxybenzamido]-7-(cyclopropylmethylidene)-N-[4-fluoro-3-(trifluoromethyl)phenyl]bicyclo[2.2.1] heptane-2-carboxamide] | 206 |
| COc1ccc(/C=C/C(=O)N2CCCC2)cc1C(=O)N[C@H]1[C@@H](C(=O)Nc2ccc(F)c(C(F)(F)F)c2)[C@H]2CC[C@@H]1/C2=C\C(F)(F)F [Example 303, (1R,2S,3R,4R,7Z)-N-[4-fluoro-3-(trifluoromethyl)phenyl]-3-{2-methoxy-5-[(1E)-3-oxo-3-(pyrrolidin-1-yl)prop-1-en-1-yl]benzamido}-7-(2,2,2-trifluoroethylidene) bicyclo[2.2.1] heptane-2-carboxamide] | 77.9 |

Stronger by EC50, values ahead:

| EC50 [nM] | SMILES |
| --- | --- |
| 14.5 | COc1ccc(COC2CCC(O)CC2)cc1C(=O)N[C@H]1[C@@H](C(=O)Nc2ccc(F)c(C(F)(F)F)c2)[C@H]2CC[C@@H]1/C2=C\C1CC1 (stereo partly drawn) [Example 289, (1R,2S,3R,4R,7Z)-7-(cyclopropyl-methylidene)-N-[4-fluoro-3-(trifluoromethyl)phenyl]-3-(5-{[(4-hydroxycyclohexyl)oxy]methyl}-2-methoxybenzamido) bicyclo[2.2.1]heptane-2-carboxamide] |
| 2.22 | COc1ccc(COCC2CC(O)C2)cc1C(=O)N[C@H]1[C@@H](C(=O)Nc2ccc(F)c(C(F)(F)F)c2)[C@H]2CC[C@@H]1/C2=C\C1CC1 (stereo partly drawn) [Example 291, (1R,2S,3R,4R,7Z)-7-(cyclopropyl-methylidene)-N-[4-fluoro-3-(trifluoromethyl)phenyl]-3-(5-{[(3-hydroxycyclobutyl)methoxy]methyl}-2-methoxybenzamido) bicyclo[2.2.1] heptane-2-carboxamide] |
| 28.4 | COc1ccc(COC[C@@H]2C[C@@H]2C(=O)O)cc1C(=O)N[C@H]1[C@@H](C(=O)Nc2ccc(F)c(C(F)(F)F)c2)[C@H]2CC[C@@H]1/C2=C\C1CC1 [Example 292, (1S,2R)-2-{[(3-{[(1R.2R,3S,4R,7Z)-7-(cyclopropyl-methylidene)-3-{[4-fluoro-3-(trifluoromethyl)phenyl]carbamoyl}bicyclo[2.2.1]heptan-2-yl]carbamoyl}-4-methoxyphenyl)methoxy]methyl} cyclopropane-1-carboxylic acid] |
| 8.3 | COc1ccc(COC2C[C@@H](O)[C@@H](O)C2)cc1C(=O)N[C@H]1[C@@H](C(=O)Nc2ccc(F)c(C(F)(F)F)c2)[C@H]2CC[C@@H]1/C2=C\C1CC1 (stereo partly drawn) [Example 297, (1R,2S,3R,4R,7Z)-7-(cyclopropylmethylidene)-3-[5-({[(3R,4S)-3,4-dihydroxycyclopentyl]oxy}methyl)-2-methoxybenzamido]-N-[4-fluoro-3-(trifluoromethyl)phenyl]bicyclo[2.2.1]heptane-2-carboxamide] |
| 21.6 | COc1ccc(COC2=NOC3CC(O)CC23)cc1C(=O)N[C@H]1[C@@H](C(=O)Nc2ccc(F)c(C(F)(F)F)c2)[C@H]2CC[C@@H]1/C2=C\C1CC1 (stereo partly drawn) [Example 301, (1R,2S,3R,4R,7Z)-7-(cyclopropylmethylidene)-N-[4-fluoro-3-(trifluoromethyl)phenyl]-3-{5-[({5-hydroxy-3aH,4H,5H,6H,6aH cyclopenta[d][1,2]oxazol-3-yl}oxy)methyl]-2-methoxybenzamido} bicyclo[2.2.1] heptane-2-carboxamide] |
| 16.3 | COc1ccc(/C=C/C(=O)N(C)CCO)cc1C(=O)N[C@H]1[C@@H](C(=O)Nc2ccc(F)c(C(F)(F)F)c2)[C@H]2CC[C@@H]1/C2=C\C1CC1 [Example 302, (1R,2S,3R,4R,7Z)-7-(cyclopropyl-methylidene)-N-[4-fluoro-3-(trifluoromethyl)phenyl]-3-{5-[(1E)-2-[(2-hydroxyethyl) (methyl)carbamoyl]eth-1-en-1-yl]-2-methoxybenzamido} bicyclo[2.2.1]heptane-2-carboxamide] |
